Experimental data reported in article PMC11718441, “Bis-3-chloropiperidines: a novel motif for anthelmintic drug design” (RSC Advances, 2025).
“Also recorded” adds a separate entry of the source. Where two headings read alike, the source gives them in different places.

How the values were obtained:
MDCK II cells = experiment: In vitro cytotoxicity, CellTiter-Glo, MDCK II cells; conditions: 100 μM; for MDCKII cytotoxicity: 48 h, cell viability less than 80% relative to DMSO control = cytotoxic
Schistosoma mansoni = experiment: In vitro tests against Schistosoma mansoni (vitality parameters of adult worm pairs); format: cell-based; conditions: for activity against S. mansoni (100% effect strength in one parameter within 7 days = active): 10 or 20 μM
Description: Subsequently, we tested whether compounds with nematocidal activity display a broader activity also against parasitic flatworms. To this end, in vitro tests against the blood fluke S. mansoni were conducted (Fig. 4). The worms were incubated in presence of 10 and 20 μM of compounds 1–22 and phenotypic vitality parameters (separation of worm pairs, detachment of suckers from the bottom of the well and weakening of body movements) were assessed as previously described.[31] Compounds reaching 100% effect strength in one of the parameters within 7 days were considered active. Reduction of motility is considered most relevant for antischistosomal drug candidates.[32] In addition, loss of sucker activity would make parasites drifting off from their host habitat (mesenteric veins) and with pair separation, the production of pathology-causing eggs eventually ceases.[33] […] For some molecular targets e.g. glutamate and GABA chloride channels (ivermecin, abamectin) and β-tubulin (albendazole, mebendazole) the C. elegans assays results were transferable to Schistosoma, while for others e.g. acetylcholin mimetic (levamisole) the C. elegans MMIC was not predicative (Fig. S1 ^†).
2.2 Parasitological studies
Animal experiments were performed in accordance with Directive 2010/63/EU on the protection of animals used for scientific purposes and the German Animal Welfare Act. The experiments were approved by the Regional Council (Regierungspraesidium) Giessen (V54 – […]
A Liberian strain of S. mansoni was maintained in the freshwater snail Biomphalaria glabrata as intermediate host and Syrian hamsters (Mesocricetus auratus) as final host (Janvier Labs, France).5,6 Hamsters were infected at 8 weeks of age with 1,750 cercariae by using the paddling method.7 Adult worms were collected at 46 days p.i. by hepatoportal perfusion and cultured in M199 medium (Sigma-Aldrich, Germany) supplemented with 10% Newborn Calf Serum (NCS, Sigma-Aldrich), 1% 1 M HEPES (ThermoFisher Scientific, USA) and 1% ABAM solution (10,000 units/ml penicillin, 10 mg/ml streptomycin and […] amphotericin B; Sigma-Aldrich, Germany) at 37 °C, 5% CO2 and humidified atmosphere.
2.2.3. In vitro tests against Schistosoma mansoni
Test compounds were added at 10 µM or 20 µM in supplemented M199 medium to schistosomes (5 worm pairs per replicate) followed by a 7 d in vitro culture. Worms receiving the solvent DMSO at equal dilution served as negative control. The following vitality parameters were assessed every 24 h by bright field microscopy using a Leica DM IL inverted microscope and x2.5 objective lens: separation of worm pairs into male and female worms; detachment of suckers from the bottom; and weakening of body movements. Worm motility was scored as described previously, 8 with the scores 3 (normal motility), 2 (reduced motility), 1 (minimal and sporadic movements), 0 (no movements within 20 sec; dead worms). An average score of all worms per well was calculated to obtain a motility score. An average motility score of 0, separation of all pairs or detachment of all worms per well was considered

S. aureus ATCC33592 = experiment: microbe, parasite or virus in culture; format: cell-based; conditions: Staphylococcus aureus, ATCC33592, read-out: MIC Sa
Description: (§1) The minimum inhibitory concentration (MIC) of the synthesized compounds was initially determined against three microbial indicator strains (Escherichia coli ATCC35218, […] ATCC33592, Septoria tritici MUCL45408). […]
(§2) 2. Microbial and parasitological studies
(§3) The minimum inhibitory concentration (MIC) of the synthesized compounds was determined against three microbial indicator strains (E. coli ATCC35218, S. aureus ATCC33592 and S. tritici MUCL45408) as previously described.1,2 All samples were dissolved in DMSO and tested in triplicate. Briefly, a pre-culture of E. coli and S. aureus was prepared by incubating the strains in cation adjusted Mueller Hinton 2 broth (Becton Dickinson, Sparks, NV, USA) at 37°C and 180 rpm overnight. The cell density of adjusted to 5 × 10^5 cells/mL before assays were incubated at 37 °C, 180 rpm and 85% rH. Three distinct dilution series of standard antibiotics (gentamicin, rifampicin, […]
(§4) medium without test compound or positive control was used as negative control.
(§5) Medium background was averaged from 5 replicates. The turbidity of each well was […]

[1] = tested on: Escherichia coli ATCC35218; experiment: microbe, parasite or virus in culture; format: cell-based; conditions: ATCC35218, read-out: MIC Ec
Description: as §1, §2, §3, §4, §5

[2] = tested on: C. elegans strains N2 and DC19; experiment: MMIC against C. elegans, strains N2 and DC19 reported together or strain not stated; format: cell-based; conditions: Caenorhabditis elegans, 48 h
Text: (§6) The cuticle of C. elegans strain DC19 is known to be more permeable for small molecules compared to the wildtype N2.[30] DC19 is thereby considered an informative drug-sensitive test organism. In our assays, we determined the minimum mobility inhibitory concentration (MMIC) as a proxy for anthelmintic activity. […] In contrast, MMICs of some small molecule anthelmintics such as albendazole, mebendazole or PF-1022A were lower for DC19 (Fig. S1 ^†). […]
(§7) 2.2 In vitro tests against Caenorhabditis Elegans
(§8) The minimal motility inhibitory concentration (MMIC) of compounds 1-22 against C. elegans was determined as described before.3 Both strains, C. elegans N2 and DC19 were treated identically. Briefly, pre-cultures of C.elegans were kept on NGM agar plates infused with auxotrophic E.coli OP50 as food source.4 After 4 days the plates contained sufficient gravid worms, respectively. Worms were washed from the plates with M9 buffer using wide bore pipette tips. Egg preparation was carried out by treating the harvested worms with an alkaline hypochlorite solution (5 M NaOH + 5 % NaOCl 1:2) in polypropylene tubes. Larvae and adult […]
(§9) We carried out 3 washing steps (M9 buffer) to remove carry-over hypochlorite solution. Subsequently, the eggs were incubated overnight in NGM broth on a rotator to yield synchronized hatched L1/L2 larvae. The larvae solution was adjusted to 100 worms/mL and supplemented with cholesterol (5 µg/mL), carbenicillin (25 µg/mL) and E.coli OP50 (0.5%). This assay solution was distributed into 96 well plates and incubated with a dilution series of compounds 1-22 (64-0.5 µg/mL). An additional eight-point dilution series of ivermecin (40 – 0.3 ng/mL) was used as positive control on each assay plate. Solvent background was controlled by supplementation of pure DMSO without any compound. Assays were incubated for 2 days at room temperature. Finally, a cell imaging multimode reader (Cytation™ 5) was used to record short videos (1.5 seconds) of each individual test well. The videos were used to evaluate the worm motility.

C. elegans N2 = experiment: whole plant or invertebrate; format: cell-based, Caenorhabditis elegans; conditions: Caenorhabditis elegans, 48 h, read-out: MMIC N2
Text: as §6, §7, §8, §9

[3] = tested on: Septoria tritici MUCL45408; experiment: Minimum inhibitory concentration (MIC), S. tritici (ATP quantification); format: cell-based; conditions: Zymoseptoria tritici, read-out: MIC St
Description: as §1, §2
The minimum inhibitory concentration (MIC) of the synthesized compounds was determined against three microbial indicator strains (E. coli ATCC35218, S. aureus ATCC33592 and S. tritici MUCL45408) as previously described.1,2 All samples were dissolved in DMSO and tested in triplicate. Briefly, a pre-culture of E. coli and S. aureus was prepared by incubating the strains in cation adjusted Mueller Hinton 2 broth (Becton Dickinson, Sparks, NV, USA) at 37°C and 180 rpm overnight. The cell density of adjusted to 5 × 10^5 cells/mL before assays were incubated at 37 °C, 180 rpm and 85% rH. Three distinct dilution series of standard antibiotics (gentamicin, rifampicin, and tetracycline) were used as positive controls on each assay plate. Inoculated medium without test compound or positive control was used as negative control.
Medium background was averaged from 5 replicates. The turbidity of each well was measured with a microplate spectrophotometer at 600 nm (LUMIstar® Omega, BMG Labtech) and growth inhibition was calculated relative to the absorption of the controls. For S. tritici MUCL45408 inoculated at a density of 1 × 10^5 cells/mL in potato […]
dextrose medium. Septoria assay plates were incubated for 4 days at 25 °C, 180 rpm and 85% rH. Tebuconazole, amphotericin B, and nystatin were used as positive controls. Cell viability was evaluated via ATP quantification (BacTiter-Glo™, Promega GmbH, Walldorf, Germany) according to the manufacturer’s instructions. […]

C. elegans DC19 = experiment: whole plant or invertebrate; format: cell-based, Caenorhabditis elegans; conditions: Caenorhabditis elegans, 48 h, read-out: MMIC DC19
Text: as §6, §7, §8, §9

in vitro = conditions: dog
[4] = C. elegans, read-out: MMIC N2 and DC19
[5] = 96 h, S. tritici MUCL45408, 4 days

Compound | MDCKII cytotoxicity (MDCK II cells) | activity against S. mansoni (100% effect strength in one parameter within 7 days = active) (Schistosoma mansoni) | MIC (S. aureus ATCC33592) [µg/mL] | MIC [1] [µg/mL] | minimal effective concentration [2, 4] [µg/mL] | minimal effective concentration (C. elegans N2) [µg/mL] | MIC ([3]; MUCL45408, 96 h) [µg/mL] | minimal effective concentration (C. elegans DC19; C. elegans DC19, 2 days) [µg/mL] | MIC [3, 5] [µg/mL] | minimal effective concentration (C. elegans N2; C. elegans N2, 2 days) [µg/mL] | further results
CN(C)c1cc(CN2CC(Cl)CC(C)(C)C2)cc(CN2CC(Cl)CC(C)(C)C2)c1 (stereo not shown) [Compound 3] | + (“+” (toxic)) | showed an effect on S. mansoni | > 64 | > 64 | < 20 | 16 | > 64 | – | – | – | cytotoxicity against MDCK II (in words) (MDCK II cells): cytotoxic; lethal effects (Schistosoma mansoni; 20 μM, after seven days): lethal effects; sucker detachment (Schistosoma mansoni; 20 μM, after three days): sucker detachment already after three days
Cc1cc(CN2CC(Cl)CC(C)(C)C2)cc(CN2CC(Cl)CC(C)(C)C2)c1 (stereo not shown) [Compound 7] | – | showed an effect on S. mansoni | > 64 | > 64 | < 20 | – | – | 16 | > 64 | – | –
CC1(C)CC(Cl)CN(Cc2ccccc2CN2CC(Cl)CC(C)(C)C2)C1 (stereo not shown) [Compound 8] | – | – | > 64 | > 64 | < 20 | – | – | – | – | 8 | phenotypic changes / vitality parameters of Schistosoma (Schistosoma mansoni; up to 20 μM, in comparison to the untreated control): did not inflict any phenotypic changes
CC1(C)CC(Cl)CN([C@H]2CC[C@H](N3CC(Cl)CC(C)(C)C3)CC2)C1 (stereo partly shown) [Compound 10] | – | – | > 64 | > 64 | ≥ 64 | – | – | > 64 | > 64 | > 64 | –
COC(=O)[C@H](CCCCN1CC(Cl)CC(C)(C)C1)N1CC(Cl)CC(C)(C)C1 (stereo partly shown) [Compound 11] | − (“−” (not toxic)) | Schistosoma-specific; also recorded: active at 20 μM | > 64 | > 64 | – | > 64 | > 64 | – | – | – | detachment of suckers and pair separation (Schistosoma mansoni; 20 μM, after 7 days incubation): detachment of suckers and pair separation; Effect on S. mansoni (Schistosoma mansoni; 10 and 20 μM, up to 7 days, Det: detachment of suckers, Mot: motility reduction, Sep: pair separation): Det, Sep; minimal effective concentration (C. elegans DC19): > 64 µg/mL; CC50 (in vitro): 123 µM
CC1(C)CC(Cl)CN(CCCC[C@@H](C(=O)OCCc2ccccc2)N2CC(Cl)CC(C)(C)C2)C1 (stereo partly shown) [Compound 12] | – | showed an effect on S. mansoni | > 64 | > 64 | < 20 | – | – | 16 | > 64 | – | sucker detachment of Schistosoma worm pairs (Schistosoma mansoni; 10 μM): full sucker detachment; motility score (Schistosoma mansoni; score 3 normal motility to 0 dead, paragraph on 20 μM): 1–1.2
CC1(C)CC(Cl)CN(CCN2CC(Cl)CC(C)(C)C2)C1 (stereo not shown) [Compound 15] | + (“+” (toxic)) | – | > 64 | > 64 | – | > 64 | > 64 | – | – | – | minimal effective concentration ([2]; read-out: MMIC N2 and DC19, C. elegans): ≥ 64 µg/mL; minimal effective concentration (C. elegans DC19): > 64 µg/mL
CCCCN1CC(Cl)CC2(CC2)C1 (stereo not shown) [Compound 17] | − (“−” (not toxic)) | – | > 64 | > 64 | – | – | – | > 64 | > 64 | > 64 | –
CC1(C)CC(Cl)CN(Cc2ccccc2)C1 (stereo not shown) [Compound 18] | + (“+” (toxic)) | – | > 64 | > 64 | – | > 64 | > 64 | – | – | – | minimal effective concentration (C. elegans DC19): 32 µg/mL
Cl[C@H]1CCCN(Cc2ccccc2)C1 [Compound 19] | − (“−” (not toxic)) | – | > 64 | > 64 | – | – | – | > 64 | > 64 | > 64 | –
Cl[C@@H]1CCCN(Cc2ccccc2)C1 [Compound 20] | − (“−” (not toxic)) | – | > 64 | > 64 | – | – | – | > 64 | > 64 | > 64 | –
COc1cc(CN2CC(O)CC(C)(C)C2)cc(CN2CC(O)CC(C)(C)C2)c1 (stereo not shown) [Compound 22] | − (“−” (not toxic)) | – | > 64 | > 64 | – | – | – | > 64 | > 64 | > 64 | –
